Here are results for 20 compounds from patent publication US20210284647A1, “N-(3-(IMIDAZO[1,2-B]PYRIDAZIN-3-YLETHYNYL)-4-METHYLPHENYL)-5-PHENYL-4,5-DIHYDRO-1H-PYRAZOLE-1-CARBOXAMIDE DERIVATIVE, AND PHARMACEUTICAL COMPOSITION CONTAINING SAME AS ACTIVE INGREDIENT FOR TREATING KINASE-RELATED DISEASES” (VORONOIBIO INC., priority 2018, published 2021).

The target of one assay is T1, human GST-RIPK1 (Homo sapiens, UniProt Q13546).
T1 construct: GST; purchased signalchem
T1 sequence (Q13546 1-375 limits assumed): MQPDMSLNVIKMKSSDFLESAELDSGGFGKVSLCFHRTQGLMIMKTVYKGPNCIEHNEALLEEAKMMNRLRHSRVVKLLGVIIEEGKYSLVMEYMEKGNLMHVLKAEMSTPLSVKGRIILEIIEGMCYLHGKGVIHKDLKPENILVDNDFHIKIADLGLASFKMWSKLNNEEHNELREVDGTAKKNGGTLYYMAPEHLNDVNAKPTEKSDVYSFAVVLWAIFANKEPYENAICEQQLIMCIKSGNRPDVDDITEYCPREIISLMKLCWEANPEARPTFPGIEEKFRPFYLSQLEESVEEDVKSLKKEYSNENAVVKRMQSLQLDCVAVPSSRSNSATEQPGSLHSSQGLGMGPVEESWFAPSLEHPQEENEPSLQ
Description: RIPK1 inhibitory activity (ADP-Glo kinase assay). Format: biochemical. The following applies: human GST-RIPK1 10 ng, ATP 50 uM, 25° C. for 4 hours, read-out: Enzyme IC50. Here is the method: The following experiment was performed to evaluate the inhibitory activity of the example compounds according to the present invention against RIPK1 (receptor-interacting serine/threonine protein kinase 1).
The example compound was reacted with the purified human GST-RIPK1 (1375, signalchem) enzyme to evaluate the enzyme inhibitory activity in the following manner. The composition of the reaction buffer used herein was as follows: 40 mM Tris-Hcl pH 7.4, 20 mM MgCl2, 0.5 mg/ml, BSA and 0.5 uM DTT. All the test materials were reacted in the reaction buffer. After reacting human GST-RIPK1 (1375, 10 ng), purified ATP (50 uM) and a specific substrate solution at 25° C. for 4 hours, the enzyme activity was confirmed using an in vitro ADP-Glo™ kinase assay (promega). Luminoscence was measured by reacting the enzyme activity reaction solution, ADP-Glo reaction solution, and enzyme activity detection solution at the ratio of 2:2:1. The degree of enzyme activity inhibition according to the treatment concentration of each compound was calculated based on the fluorescence of the enzyme activity of the solvent control not treated with the compound. At this time, the concentration of each compound inhibiting 50% of the enzyme activity was determined as IC50 (nM). IC50 of each compound was determined with three data sets and calculated using Prism (version 7.01, GraphPad) software.
A general note: ADP-Glo turns the ADP formed in a reaction into a luminescent signal.

The test system of assay [1] is human Jurkat T cells deficient in FADD. Briefly: Cell protection effect under apoptosis-inducing condition (TNF-α). Format: cell-based. To be noted: 40 ng of TNF-α, 50 hours, CellTiter-Glo, read-out: I2.I Cell EC50. Here is the method: The cell protection effect of the compounds according to the present invention under the condition of inducing apoptosis by TNF-α was confirmed by […]. An apoptosis inducing factor such as TNF-α was treated to induce apoptosis of human Jurkat T cells deficient in FADD, to which the example compound was treated, and the cell protection effect was confirmed through the following analysis. Jurkat T cells deficient in FADD were cultured using RPMI medium (Hyclone) containing 10% FBS. When performing the test, the cells were seeded in a 96-well plate containing a medium suitable for the cell line at the density of 10,000 cells/well, and cultured in a 37° C. 5% CO2 incubator for 24 hours. Then, each well was treated with 40 ng of TNF-α, and the compounds prepared in the above examples were each treated with a 3-fold concentration gradient with 1 μM as the highest concentration. As the solvent control, dimethyl sulfoxide (DMSO) was treated at the concentration of 0.05% (v/v), which was the same concentration as that used for the compound treatment. Then, the cells were cultured for 50 hours. To confirm the degree of viability of the cells, a mixture provided in CellTiter-Gloe Luminescent Cell Viability Assay Kit (Promega) was added to the culture medium of the cells, followed by further culture at 37° C. for 30 minutes. Then, luminescence fluorescence was measured. The degree of inhibition of apoptosis induction according to the treatment concentration of each compound was calculated based on the fluorescence of the solvent control cells not treated with the compound. At this time, the concentration of each compound inhibiting 50% was determined as EC50 (μM). EC50 of each compound was calculated using Prism (version 7.01, GraphPad) software.
(In ATP-based viability assays light output follows the ATP content of the culture.)

Structures can show the parent of a compound that is named as a salt. A value given as a limit tells only on which side of the number the result lay.

The IC50 is the point on the concentration scale where inhibition reaches its midpoint. By EC50 is commonly meant the concentration giving half of the maximal effect.

Consider `CC(=O)Nc1cccn2c(C#Cc3cccc(NC(=O)N4N=CCC4c4ccccc4)c3)cnc12` (stereo not drawn) [Example 60, N-(3-((8-acetamidoimidazo[1,2-a]pyridin-3-yl)ethynyl)phenyl)-5-phenyl-4,5-dihydro-1H-pyrazole-1-carboxamide], for which, at human GST-RIPK1, the IC50 turned out to be 64.1 nM. In addition, the EC50 in assay [1] worked out at 0.4 nM.
As for `Cc1ccc(NC(=O)N2N=CCC2c2ccccn2)cc1C#Cc1cnc2cccnn12` (stereo not drawn) [Example 17, N-(3-(imidazo[1,2-b]pyridazin-3-ylethynyl)-4-methylphenyl)-5-(pyridin-2-yl)-4,5-dihydro-1H-pyrazole-1-carboxamide 2,2,2-trifluoroacetate], the IC50 at human GST-RIPK1 came to 1.8 nM. Further, the EC50 in assay [1] came out at 0.2 nM.
`CNC(=O)Nc1cccn2c(C#Cc3cccc(NC(=O)N4N=CCC4c4ccccc4)c3)cnc12` (stereo not drawn) [Example 61, N-(3-((8-(3-methylureido)imidazo[1,2-a]pyridin-3-yl)ethynyl)phenyl)-5-phenyl-4,5-dihydro-1H-pyrazole-1-carboxamide 2,2,2-trifluoroacetate]: the IC50 at human GST-RIPK1 is 96.7 nM. Besides, the EC50 in assay [1] was 0.4 nM.
For `Cc1ccc(NC(=O)N2N=CCC2c2ccc(C(F)(F)F)cc2)cc1C#Cc1cnc2cccnn12` (stereo not drawn) [Example 7, N-(3-(imidazo[1,2-b]pyridazin-3-ylethynyl)-4-methylphenyl)-5-(4-(trifluoromethyl)phenyl)-4,5-dihydro-1H-pyrazole-1-carboxamide 2,2,2-trifluoroacetate], in that order: 134 nM and 1.9 nM.
On the same counts, the results for `O=C(Nc1ccnc(C#Cc2cnc3cccnn23)c1)N1N=CCC1c1ccccc1` (stereo not drawn) [Example 48, N-(2-(imidazo[1,2-b]pyridazin-3-ylethynyl)pyridin-4-yl)-5-phenyl-4,5-dihydro-1H-pyrazole-1-carboxamide 2,2,2-trifluoroacetate] are 3.4 nM and 1.4 nM.
In the case of `O=C(Nc1cccc(C#Cc2cnc3cccnn23)c1)N1N=CCC1c1ccc2ccccc2c1` (stereo not drawn) [Example 40, N-(3-(imidazo[1,2-b]pyridazin-3-ylethynyl)phenyl)-5-(naphthalen-2-yl)-4,5-dihydro-1H-pyrazole-1-carboxamide], the IC50 on human GST-RIPK1 was 19 nM. Moreover, the EC50 in assay [1] was 12.4 nM.
Consider `O=C(Nc1cccc(C#Cc2cnc3cnccn23)c1)N1N=CCC1c1ccccc1` (stereo not drawn) [Example 57, N-(3-(imidazo[1,2-a]pyrazin-3-ylethynyl)phenyl)-5-phenyl-4,5-dihydro-1H-pyrazole-1-carboxamide], for which, on human GST-RIPK1, the IC50 is 23.8 nM. In assay [1], the EC50 stood at 0.3 nM.
For `Nc1cccn2c(C#Cc3cccc(NC(=O)N4N=CCC4c4ccccc4)c3)cnc12` (stereo not drawn) [Example 59, N-(3-((8-aminoimidazo[1,2-a]pyridin-3-yl)ethynyl)phenyl)-5-phenyl-4,5-dihydro-1H-pyrazole-1-carboxamide hydrochloride], in that order: 127 nM and 17.6 nM.
For `O=C(Nc1cccc(C#Cc2cnc3cccnn23)c1)N1N=CCC1c1cccnc1` (stereo not drawn) [Example 36, N-(3-(imidazo[1,2-b]pyridazin-3-ylethynyl)phenyl)-5-(pyridin-3-yl)-4,5-dihydro-1H-pyrazole-1-carboxamide 2,2,2-trifluoroacetate], in that order: 2.98 nM and 12 nM.
For `O=C(Nc1cccc(C#Cc2cnc3cccnn23)c1)N1N=CC[C@@H]1c1ccc(F)cc1` [Example 33, (R)-5-(4-fluorophenyl)-N-(3-(imidazo[1,2-b]pyridazin-3-ylethynyl)phenyl)-4,5-dihydro-1H-pyrazole-1-carboxamide 2,2,2-trifluoroacetate], in that order: > 1000 nM and 32 nM.
Consider `Cc1ccc(NC(=O)N2N=CCC2c2ccc(F)cc2)cc1C#Cc1cnc2cccnn12` (stereo not drawn) [Example 11, 5-(4-fluorophenyl)-N-(3-(imidazo[1,2-b]pyridazin-3-ylethynyl)-4-methylphenyl)-4,5-dihydro-1H-pyrazole-1-carboxamide 2,2,2-trifluoroacetate], for which the IC50 at human GST-RIPK1 amounted to 47.4 nM. Moreover, the EC50 in assay [1] stood at 0.35 nM.
For `O=C(Nc1cccc(C#Cc2cnc3cccnn23)c1)N1N=CC[C@@H]1c1cccc(F)c1` [Example 30, (R)-5-(3-fluorophenyl)-N-(3-(imidazo[1,2-b]pyridazin-3-ylethynyl)phenyl)-4,5-dihydro-1H-pyrazole-1-carboxamide 2,2,2-trifluoroacetate], in that order: 399 nM and 321 nM.
With `Cc1ccc(NC(=O)N2N=CC[C@@H]2c2ccc(F)cc2)cc1C#Cc1cnc2cccnn12` [Example 13, (R)-5-(4-fluorophenyl)-N-(3-(imidazo[1,2-b]pyridazin-3-ylethynyl)-4-methylphenyl)-4,5-dihydro-1H-pyrazole-1-carboxamide 2,2,2-trifluoroacetate], at human GST-RIPK1, the IC50 came out at 503 nM. For the same compound, the EC50 in assay [1] was determined as 321 nM.
On the same counts, the results for `O=C(Nc1ccc(F)c(C#Cc2cnc3cccnn23)c1)N1N=CC[C@@H]1c1ccccc1` [Example 46, (R)—N-(4-fluoro-3-(imidazo[1,2-b]pyridazin-3-ylethynyl)phenyl)-5-phenyl-4,5-dihydro-1H-pyrazole-1-carboxamide 2,2,2-trifluoroacetate] are 205 nM and 97.7 nM.
On the same counts, the results for `O=C(Nc1cccc(C#Cc2cnc3cccnn23)c1)N1N=CC[C@H]1c1cc(F)cc(F)c1` [Example 24, (S)-5-(3,5-difluorophenyl)-N-(3-(imidazo[1,2-b]pyridazin-3-ylethynyl)phenyl)-4,5-dihydro-1H-pyrazole-1-carboxamide 2,2,2-trifluoroacetate] are 2.76 nM and 0.44 nM.
For `Cc1ccc(NC(=O)N2N=CC[C@H]2c2cc(F)cc(F)c2)cc1C#Cc1cnc2cccnn12` [Example 5, (S)-5-(3,5-difluorophenyl)-N-(3-(imidazo[1,2-b]pyridazin-3-ylethynyl)-4-methylphenyl)-4,5-dihydro-1H-pyrazole-1-carboxamide 2,2,2-trifluoroacetate], in that order: 4.56 nM and 0.4 nM.
Take `Cn1cc(Nc2cccn3c(C#Cc4cccc(NC(=O)N5N=CCC5c5ccccc5)c4)cnc23)cn1` (stereo not drawn) [Example 67, N-(3-((8-((1-methyl-1H-pyrazol-4-yl)amino)imidazo[1,2-a]pyridin-3-yl)ethynyl)phenyl)-5-phenyl-4,5-dihydro-1H-pyrazole-1-carboxamide 2,2,2-trifluoroacetate]: on human GST-RIPK1, the IC50 is 19 nM. In assay [1], the EC50 is 0.08 nM.
On to `O=C(Nc1cccc(C#Cc2cnc3ncccn23)c1)N1N=CCC1c1ccccc1` (stereo not drawn) [Example 58, N-(3-(imidazo[1,2-a]pyrimidin-3-ylethynyl)phenyl)-5-phenyl-4,5-dihydro-1H-pyrazole-1-carboxamide], for which the IC50 at human GST-RIPK1 was 15 nM. Besides, the EC50 in assay [1] was 3.6 nM.
Take `Cc1ccc(NC(=O)N2N=CCC2c2cccnc2)cc1C#Cc1cnc2cccnn12` (stereo not drawn) [Example 16, N-(3-(imidazo[1,2-b]pyridazin-3-ylethynyl)-4-methylphenyl)-5-(pyridin-3-yl)-4,5-dihydro-1H-pyrazole-1-carboxamide 2,2,2-trifluoroacetate]: the IC50 on human GST-RIPK1 turned out to be 1.8 nM. The EC50 in assay [1] stood at 0.05 nM.
`Cc1ccc(NC(=O)N2N=CCC2c2ccccc2)cc1C#Cc1cnc2cccnn12` (stereo not drawn) [Example 1, N-(3-(imidazo[1,2-b]pyridazin-3-ylethynyl)-4-methylphenyl)-5-phenyl-4,5-dihydro-1H-pyrazole-1-carboxamide 2,2,2-trifluoroacetate]: the concentration giving a half-maximal response (EC50) in assay [1] came out at 0.17 nM.
